Experiment [1] has as its target human GLP-1 receptor (hGLP-1R) (Homo sapiens, UniProt P43220). Kind of experiment: cAMP production (HTRF) in CHO cells expressing hGLP-1R. Type of experiment: cell-based. Also noted: expressed in transfected cells. As to conditions: for % Relative Potency Ratio: % GLP-1R activity relative to GLP-1 / % GlucR activity relative to glucagon; for EC50: cAMP in CHO hGLP-1R cells, geometric mean, read-out: hGLP-1R EC50. The method, boiled down:
(§1)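 Potency values represent EC50 from 4-parameter logistic curves of HTRF % Delta F signal. Receptor-expressing CHO cells (hGCGR 2×10^5 cells/mL, hGLP-1R 1×10^5 cells/mL) were exposed for 30 min at room temperature before two-step cAMP detection.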

Experiment [2] has as its target human glucagon receptor (hGCGR) (Homo sapiens, UniProt P47871). Kind of experiment: cAMP production (HTRF) in CHO cells expressing hGCGR. Type of experiment: cell-based. More on the design: expressed in transfected cells. Particulars: cAMP in CHO hGCGR cells, geometric mean, read-out: hGluc-R EC50. The method, boiled down: as §1
The mark [3] stands for this setting: Table 6, peptides modified at position 17.
[4] abbreviates: Table 7, peptides modified at position 20.

Read-outs that look alike come from different tables or passages of the source. Starred links: 1 amine or outer side, 2 acyl side, 3 side chain; linkers in the order of their positions; H or OH if unused. Non-standard residues stand in square brackets, D forms with d. Residues, ends and D or L forms follow the SMILES beside them. Groups on a side chain read outwards from the residue. *: point of attachment. C20 diacid = O=C(O)CCCCCCCCCCCCCCCCCCC(=O)*; C18 diacid = O=C(O)CCCCCCCCCCCCCCCCC(=O)*; γGlu = O=C(O)[C@H](CCC(=O)[*:2])N[*:1]; Stearoyl = CCCCCCCCCCCCCCCCCC(=O)*; αMeF = C[C@](N)(Cc1ccccc1)C(=O)O; PEG2 = NCCOCCOCCC(=O)O; AEEA = NCCOCCOCC(=O)O; Aib = CC(C)(N)C(=O)O

Chain of human glucagon receptor (hGCGR) (P47871 26-477): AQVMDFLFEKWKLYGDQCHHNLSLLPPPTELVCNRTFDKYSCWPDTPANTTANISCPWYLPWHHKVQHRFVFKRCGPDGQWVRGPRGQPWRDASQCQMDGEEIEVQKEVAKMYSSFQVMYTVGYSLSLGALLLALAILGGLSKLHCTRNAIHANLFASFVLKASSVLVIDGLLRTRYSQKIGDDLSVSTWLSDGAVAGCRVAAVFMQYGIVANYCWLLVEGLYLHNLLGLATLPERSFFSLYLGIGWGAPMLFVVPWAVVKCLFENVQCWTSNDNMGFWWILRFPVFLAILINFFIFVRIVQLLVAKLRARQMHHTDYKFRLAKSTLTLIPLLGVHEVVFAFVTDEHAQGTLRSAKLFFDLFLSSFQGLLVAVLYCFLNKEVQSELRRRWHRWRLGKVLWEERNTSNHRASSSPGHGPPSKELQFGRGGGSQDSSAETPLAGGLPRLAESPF
Chain of human GLP-1 receptor (hGLP-1R) (P43220 24-463): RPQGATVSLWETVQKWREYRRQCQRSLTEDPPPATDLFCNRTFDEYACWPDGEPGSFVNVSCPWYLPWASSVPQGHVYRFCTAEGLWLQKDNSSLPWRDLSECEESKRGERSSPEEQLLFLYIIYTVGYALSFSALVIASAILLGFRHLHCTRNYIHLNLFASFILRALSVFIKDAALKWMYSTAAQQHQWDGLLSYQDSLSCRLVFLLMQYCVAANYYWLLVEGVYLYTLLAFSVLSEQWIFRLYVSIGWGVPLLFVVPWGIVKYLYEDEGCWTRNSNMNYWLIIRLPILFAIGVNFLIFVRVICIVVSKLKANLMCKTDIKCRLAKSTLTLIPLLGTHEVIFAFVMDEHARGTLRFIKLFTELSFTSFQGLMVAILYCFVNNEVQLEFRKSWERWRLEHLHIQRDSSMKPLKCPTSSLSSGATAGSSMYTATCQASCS

For `CCCCCCCCCCCCCCCCCC(=O)N[C@@H](CCC(=O)N[C@@H](CCC(=O)NCCOCCOCCC(=O)NCCOCCOCCC(=O)NCCCC[C@H](NC(=O)[C@H](CO)NC(=O)[C@H](CC(=O)O)NC(=O)[C@H](CC(C)C)NC(=O)C(C)(C)NC(=O)[C@H](CCCCNC(C)=O)NC(=O)[C@H](CO)NC(=O)[C@@H](NC(=O)[C@H](CC(=O)O)NC(=O)[C@H](CO)NC(=O)[C@@H](NC(=O)[C@](C)(Cc1ccccc1)NC(=O)[C@H](CO)NC(=O)CNC(=O)[C@H](CCC(N)=O)NC(=O)[C@H](CO)NC(=O)[C@@H](N)Cc1c[nH]cn1)[C@@H](C)O)C(C)C)C(=O)N[C@@H](C)C(=O)N[C@@H](C)C(=O)N[C@@H](CCC(N)=O)C(=O)N[C@@H](CC(=O)O)C(=O)N[C@@](C)(Cc1ccccc1)C(=O)N[C@H](C(=O)N[C@@H](CCC(N)=O)C(=O)NC(C)(C)C(=O)N[C@H](C(=O)N[C@@H](C)C(=O)N[C@@H](CC(N)=O)C(N)=O)[C@@H](C)CC)C(C)C)C(=O)O)C(=O)O` [Peptide 110] (H-HSQGS[αMeF]TSDVSK(Ac)[Aib]LDSK([PEG2-PEG2-γGlu-γGlu-Stearoyl])AAQD[αMeF]VQ[Aib]IAN-NH2; N-terminus assumed), in experiment [1] (Table 6), the “% Relative Potency Ratio” value came to 152.9. In addition, the EC50 in experiment [2] (setting [3]) amounted to 0.0485 nM.
As for `CC[C@H](C)[C@H](NC(=O)C(C)(C)NC(=O)[C@H](CCC(=O)O)NC(=O)[C@@H](NC(=O)[C@](C)(Cc1ccccc1)NC(=O)[C@H](CC(=O)O)NC(=O)[C@H](CCCCNC(=O)COCCOCCNC(=O)COCCOCCNC(=O)CC[C@H](NC(=O)CCCCCCCCCCCCCCCCC(=O)O)C(=O)O)NC(=O)[C@H](C)NC(=O)[C@H](C)NC(=O)[C@H](CCCNC(=N)N)NC(=O)[C@H](CO)NC(=O)[C@H](CC(=O)O)NC(=O)[C@H](CC(C)C)NC(=O)[C@](C)(Cc1ccccc1)NC(=O)[C@H](CCCCN)NC(=O)[C@H](CO)NC(=O)[C@@H](NC(=O)[C@H](CC(=O)O)NC(=O)[C@H](CO)NC(=O)[C@@H](NC(=O)[C@](C)(Cc1ccccc1)NC(=O)[C@H](CO)NC(=O)CNC(=O)[C@H](Cc1c[nH]cn1)NC(=O)C(C)(C)NC(=O)[C@@H](N)Cc1c[nH]cn1)[C@@H](C)O)C(C)C)C(C)C)C(=O)N[C@@H](C)C(=O)N[C@@H](CC(N)=O)C(=O)N[C@H](C(N)=O)[C@@H](C)O` [Peptide 226] (H-H[Aib]HGS[αMeF]TSDVSK[αMeF]LDSRAAK([AEEA-AEEA-γGlu-C18 diacid])D[αMeF]VE[Aib]IANT-NH2), the EC50 in experiment [1] (setting [4]) amounted to 0.0827 nM; in experiment [2] (setting [4]), 0.0274 nM. Further, the “% Relative Potency Ratio” value in experiment [1] (Table 7) is on record as 0.7.
Take `CC(C)C[C@H](NC(=O)[C@H](Cc1c[nH]c2ccccc12)NC(=O)[C@H](CCCNC(=N)N)NC(=O)[C@@H](NC(=O)[C@H](Cc1ccccc1)NC(=O)[C@H](CC(=O)O)NC(=O)[C@H](CCC(N)=O)NC(=O)[C@H](C)NC(=O)[C@H](CCCNC(=N)N)NC(=O)[C@H](CCCCNC(=O)COCCOCCNC(=O)COCCOCCNC(=O)CC[C@H](NC(=O)CCCCCCCCCCCCCCCCC(=O)O)C(=O)O)NC(=O)[C@H](CO)NC(=O)[C@H](CCC(=O)O)NC(=O)[C@H](CC(C)C)NC(=O)[C@](C)(Cc1ccccc1)NC(=O)[C@H](CCCCN)NC(=O)[C@H](CO)NC(=O)[C@@H](NC(=O)[C@H](CC(=O)O)NC(=O)[C@H](CO)NC(=O)[C@@H](NC(=O)[C@H](Cc1ccccc1)NC(=O)[C@@H](NC(=O)CNC(=O)[C@H](CCC(N)=O)NC(=O)C(C)(C)NC(=O)[C@@H](N)Cc1c[nH]cn1)[C@@H](C)O)[C@@H](C)O)C(C)C)C(C)C)C(=O)N[C@@H](CC(C)C)C(=O)N[C@@H](CCC(=O)O)C(=O)NC(C)(C)C(=O)NCC(=O)O` [Peptide 160] (H-H[Aib]QGTFTSDVSK[αMeF]LESK([AEEA-AEEA-γGlu-C18 diacid])RAQDFVRWLLE[Aib]G-OH): the EC50 in experiment [1] (setting [3]) was 0.0552 nM; in experiment [2] (setting [3]) it was 0.417 nM. For the same molecule, in experiment [1] (Table 6), the “% Relative Potency Ratio” value is 14.9.
Regarding `CC(C)C[C@H](NC(=O)[C@H](Cc1c[nH]c2ccccc12)NC(=O)[C@H](CCCNC(=N)N)NC(=O)[C@@H](NC(=O)[C@H](Cc1ccccc1)NC(=O)[C@H](CC(=O)O)NC(=O)[C@H](CCC(N)=O)NC(=O)[C@H](C)NC(=O)[C@H](CCCNC(=N)N)NC(=O)[C@H](CCCCNC(=O)COCCOCCNC(=O)COCCOCCNC(=O)CC[C@H](NC(=O)CCCCCCCCCCCCCCCCC(=O)O)C(=O)O)NC(=O)[C@H](CCCCN)NC(=O)[C@H](CC(=O)O)NC(=O)[C@H](CC(C)C)NC(=O)[C@](C)(Cc1ccccc1)NC(=O)[C@H](CCCCN)NC(=O)[C@H](CO)NC(=O)[C@@H](NC(=O)[C@H](CC(=O)O)NC(=O)[C@H](CO)NC(=O)[C@@H](NC(=O)[C@H](Cc1ccccc1)NC(=O)[C@@H](NC(=O)CNC(=O)[C@H](CCC(N)=O)NC(=O)C(C)(C)NC(=O)[C@@H](N)Cc1c[nH]cn1)[C@@H](C)O)[C@@H](C)O)C(C)C)C(C)C)C(=O)N[C@@H](CC(C)C)C(=O)NC(C)(C)C(=O)N[C@H](C(=O)N[C@@H](CCC(=O)O)C(=O)O)[C@@H](C)O` [Peptide 178], the EC50 in experiment [1] (setting [3]) came out at 0.0518 nM; in experiment [2] (setting [3]), 0.104 nM. For the same molecule, in experiment [1] (Table 6), the “% Relative Potency Ratio” value is 4.0.
As for `CC[C@H](C)[C@H](NC(=O)C(C)(C)NC(=O)[C@H](CCC(N)=O)NC(=O)[C@@H](NC(=O)[C@](C)(Cc1ccccc1)NC(=O)[C@H](CC(=O)O)NC(=O)[C@H](CCCCNC(=O)COCCOCCNC(=O)CC[C@H](NC(=O)COCCOCCNC(=O)CCCCCCCCCCCCCCCCCCC(=O)O)C(=O)O)NC(=O)[C@H](C)NC(=O)[C@H](C)NC(=O)[C@H](CCCNC(=N)N)NC(=O)[C@H](CO)NC(=O)[C@H](CC(=O)O)NC(=O)[C@H](CC(C)C)NC(=O)[C@](C)(Cc1ccccc1)NC(=O)[C@H](CCCCN)NC(=O)[C@H](CO)NC(=O)[C@@H](NC(=O)[C@H](CC(=O)O)NC(=O)[C@H](CO)NC(=O)[C@@H](NC(=O)[C@](C)(Cc1ccccc1)NC(=O)[C@H](CO)NC(=O)CNC(=O)[C@H](Cc1c[nH]cn1)NC(=O)C(C)(C)NC(=O)[C@@H](N)Cc1c[nH]cn1)[C@@H](C)O)C(C)C)C(C)C)C(=O)N[C@@H](C)C(=O)N[C@@H](CC(N)=O)C(=O)N[C@H](C(N)=O)[C@@H](C)O` [Peptide 265] (H-H[Aib]HGS[αMeF]TSDVSK[αMeF]LDSRAAK([AEEA-γGlu-AEEA-C20 diacid])D[αMeF]VQ[Aib]IANT-NH2), the 50% effective concentration (EC50) in experiment [1] (setting [4]) worked out at 0.0712 nM; in experiment [2] (setting [4]), 0.131 nM. The “% Relative Potency Ratio” value in experiment [1] (Table 7) is given as 3.6.
The like results for `CC[C@H](C)[C@H](NC(=O)[C@H](Cc1c[nH]c2ccccc12)NC(=O)[C@H](CCC(N)=O)NC(=O)[C@@H](NC(=O)[C@](C)(Cc1ccccc1)NC(=O)[C@H](CC(=O)O)NC(=O)[C@H](CCCCNC(=O)COCCOCCNC(=O)COCCOCCNC(=O)CC[C@H](NC(=O)CCCCCCCCCCCCCCCCC(=O)O)C(=O)O)NC(=O)[C@H](C)NC(=O)[C@H](C)NC(=O)[C@H](CCCNC(=N)N)NC(=O)[C@H](CO)NC(=O)[C@H](CC(=O)O)NC(=O)[C@H](CC(C)C)NC(=O)[C@H](Cc1ccc(O)cc1)NC(=O)[C@H](CCCCN)NC(=O)[C@H](CO)NC(=O)[C@@H](NC(=O)[C@H](CC(=O)O)NC(=O)[C@H](CO)NC(=O)[C@@H](NC(=O)[C@H](Cc1ccccc1)NC(=O)[C@H](CO)NC(=O)CNC(=O)[C@H](Cc1c[nH]cn1)NC(=O)C(C)(C)NC(=O)[C@@H](N)Cc1c[nH]cn1)[C@@H](C)O)C(C)C)C(C)C)C(=O)N[C@@H](C)C(=O)N[C@@H](CC(N)=O)C(=O)N[C@H](C(N)=O)[C@@H](C)O` [Peptide 294] (H-H[Aib]HGSFTSDVSKYLDSRAAK([AEEA-AEEA-γGlu-C18 diacid])D[αMeF]VQWIANT-NH2) were, in that order, 0.51 nM, 0.102 nM and 0.4.
As for `CCCCCCCCCCCCCCCCCC(=O)N[C@@H](CCC(=O)N[C@@H](CCC(=O)NCCOCCOCCC(=O)NCCOCCOCCC(=O)NCCCC[C@H](NC(=O)[C@H](CO)NC(=O)[C@H](CC(=O)O)NC(=O)[C@H](CC(C)C)NC(=O)C(C)(C)NC(=O)[C@H](CCCCN)NC(=O)[C@H](CO)NC(=O)[C@@H](NC(=O)[C@H](CC(=O)O)NC(=O)[C@H](CO)NC(=O)[C@@H](NC(=O)[C@](C)(Cc1ccccc1)NC(=O)[C@H](CO)NC(=O)CNC(=O)[C@H](CCC(N)=O)NC(=O)[C@H](CO)NC(=O)[C@@H](N)Cc1c[nH]cn1)[C@@H](C)O)C(C)C)C(=O)N[C@@H](C)C(=O)N[C@@H](C)C(=O)N[C@@H](CCC(N)=O)C(=O)N[C@@H](CC(=O)O)C(=O)N[C@@](C)(Cc1ccccc1)C(=O)N[C@H](C(=O)N[C@@H](CCC(N)=O)C(=O)NC(C)(C)C(=O)N[C@@H](CC(C)C)C(=O)N[C@@H](C)C(=O)N[C@@H](CC(N)=O)C(N)=O)C(C)C)C(=O)O)C(=O)O` [Peptide 93] (H-HSQGS[αMeF]TSDVSK[Aib]LDSK([PEG2-PEG2-γGlu-γGlu-Stearoyl])AAQD[αMeF]VQ[Aib]LAN-NH2; N-terminus assumed), the “% Relative Potency Ratio” value in experiment [1] (Table 6) amounted to 37.4. Also, the concentration for a half-maximal effect (EC50) in experiment [2] (setting [3]) came to 0.00892 nM.

Source of the values: patent publication US20250353891A1 (MEDIMMUNE LIMITED, priority 2022, published 2025).
